Values belong to the molecule of their own block, whether it stands above or below them. Activity calls are given as the source filed them. The calls are words filed in the database; no cut-off is given here.
Experiments:
[1] = biological target: T1, Protein cereblon/Transcriptional coactivator YAP1 (Homo sapiens) (UniProt P46937+Q96SW2); test: PROTAC activity at YAP/CRBN in human NCI-H226 cells assessed as induction of YAP degradation 10 uM incubated for 48 hrs by Western blot analysis; type: cell-based
T1 sequence (P46937 whole entry, looked up): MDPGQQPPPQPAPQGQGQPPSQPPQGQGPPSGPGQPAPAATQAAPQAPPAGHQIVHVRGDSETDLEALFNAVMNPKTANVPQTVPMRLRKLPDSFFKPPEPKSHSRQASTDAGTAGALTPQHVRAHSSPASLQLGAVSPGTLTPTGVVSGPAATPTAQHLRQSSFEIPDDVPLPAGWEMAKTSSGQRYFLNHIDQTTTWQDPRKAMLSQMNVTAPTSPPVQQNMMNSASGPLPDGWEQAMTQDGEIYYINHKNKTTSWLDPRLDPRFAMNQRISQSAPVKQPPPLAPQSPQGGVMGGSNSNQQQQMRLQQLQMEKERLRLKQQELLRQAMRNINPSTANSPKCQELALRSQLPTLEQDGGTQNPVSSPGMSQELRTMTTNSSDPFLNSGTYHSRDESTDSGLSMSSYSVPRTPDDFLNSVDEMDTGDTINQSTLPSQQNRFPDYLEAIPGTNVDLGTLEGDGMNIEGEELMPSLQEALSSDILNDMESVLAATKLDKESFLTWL
T1 sequence (Q96SW2 whole entry, looked up): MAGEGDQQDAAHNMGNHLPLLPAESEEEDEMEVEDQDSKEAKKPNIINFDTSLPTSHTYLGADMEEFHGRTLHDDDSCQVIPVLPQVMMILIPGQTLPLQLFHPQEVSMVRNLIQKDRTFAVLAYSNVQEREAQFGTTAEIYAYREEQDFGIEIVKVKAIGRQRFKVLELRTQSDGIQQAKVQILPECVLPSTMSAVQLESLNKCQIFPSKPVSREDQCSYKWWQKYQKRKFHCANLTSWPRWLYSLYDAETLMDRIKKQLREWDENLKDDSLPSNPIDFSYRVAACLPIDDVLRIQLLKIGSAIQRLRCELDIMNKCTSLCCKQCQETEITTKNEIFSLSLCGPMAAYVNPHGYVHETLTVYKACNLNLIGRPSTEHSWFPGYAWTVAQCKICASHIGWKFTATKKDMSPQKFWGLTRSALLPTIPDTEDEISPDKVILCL

NCI-H226 [2] = test: Antiproliferative activity against human NCI-H226 cells assessed as cell killing upto 3.13 uM incubated for 4 days by CCK-8 assay; type: functional, cell-based; details: time 4.0 day
[3] = biological target: Transcriptional enhancer factor TEF-1 (Homo sapiens) (UniProt P28347); test: Inhibition of TEAD transcriptional activity in human HEK293T cells incubated for 24 hrs by luciferase reporter assay; type: cell-based
Chain of Transcriptional enhancer factor TEF-1 (Homo sapiens) (P28347 whole entry): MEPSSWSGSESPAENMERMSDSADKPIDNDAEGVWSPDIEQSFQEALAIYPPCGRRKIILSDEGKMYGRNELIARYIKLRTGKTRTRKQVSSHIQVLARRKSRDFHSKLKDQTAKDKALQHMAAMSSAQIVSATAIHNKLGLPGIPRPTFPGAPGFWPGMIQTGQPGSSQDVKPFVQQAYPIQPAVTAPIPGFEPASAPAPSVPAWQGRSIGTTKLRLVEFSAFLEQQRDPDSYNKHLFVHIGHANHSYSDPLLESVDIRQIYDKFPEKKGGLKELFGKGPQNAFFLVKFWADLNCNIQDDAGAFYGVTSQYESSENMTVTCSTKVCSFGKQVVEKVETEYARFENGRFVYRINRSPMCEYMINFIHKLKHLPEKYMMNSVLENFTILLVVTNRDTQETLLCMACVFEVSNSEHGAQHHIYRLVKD

NCI-H226 [4] = test: Antiproliferative activity against human NCI-H226 cells assessed as cell killing at 10 uM incubated for 3 days by CCK-8 assay; type: functional, cell-based; details: time 3.0 day
[5] = biological target: T2, von Hippel-Lindau disease tumor suppressor/Transcriptional coactivator YAP1 (Homo sapiens, UniProt P40337+P46937); test: PROTAC activity at YAP/VHL in human NCI-H226 cells assessed as induction of YAP degradation 10 uM incubated for 48 hrs by Western blot analysis; type: cell-based
Target sequence in this assay (P40337 whole entry, looked up): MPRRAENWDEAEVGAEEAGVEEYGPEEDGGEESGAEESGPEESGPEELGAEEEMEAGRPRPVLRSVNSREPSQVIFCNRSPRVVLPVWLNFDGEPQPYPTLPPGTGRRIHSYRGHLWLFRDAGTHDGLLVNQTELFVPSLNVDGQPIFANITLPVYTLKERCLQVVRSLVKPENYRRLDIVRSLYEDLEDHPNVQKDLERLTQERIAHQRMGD
Target sequence in this assay (P46937 whole entry, looked up): as the sequence (P46937 whole entry, looked up) above

[6] = biological target: T1, Protein cereblon/Transcriptional coactivator YAP1 (Homo sapiens); test: PROTAC activity at YAP/CRBN in human NCI-H226 cells assessed as induction of YAP degradation at 10 uM incubated for 48 hrs by Western blot analysis; type: cell-based
NCI-H226 [7] = test: Antiproliferative activity against human NCI-H226 cells assessed as cell growth inhibition incubated for 3 days by CCK-8 assay; type: functional, cell-based; details: time 3.0 day
[8] = biological target: Transcriptional coactivator YAP1 (Homo sapiens) (UniProt P46937); test: Induction of YAP degradation in human NCI-H290 cells at 5 uM relative to control; type: cell-based
Chain of Transcriptional coactivator YAP1 (Homo sapiens) (P46937 whole entry): as the sequence (P46937 whole entry, looked up) above

NCI-H226 [9] = test: Antiproliferative activity against NF2 deficient- human NCI-H226 cells assessed as cell growth inhibition incubated for 4 days by CCK-8 assay; type: functional, cell-based; details: NCI-H226, 96 h
Huh-7 [10] = test: Antiproliferative activity against human Huh-7 cells overexpressing YAP assessed as cell growth inhibition incubated for 4 days by CCK-8 assay; type: functional, cell-based; details: Huh-7, 96 h
NCI-H226 [11] = test: Antiproliferative activity against NF2 deficient- human NCI-H226 cells assessed as maximum cell growth inhibition incubated for 4 days by CCK-8 assay relative to control; type: functional; details: time 4 day
[12] = biological target: T2, von Hippel-Lindau disease tumor suppressor/Transcriptional coactivator YAP1; test: PROTAC activity at YAP/VHL in human NCI-H226 cells assessed as induction of YAP degradation at 10 uM incubated for 48 hrs by Western blot analysis; type: cell-based
Target sequence in this assay (P40337 whole entry, looked up): as the sequence (P40337 whole entry, looked up) above
Target sequence in this assay (P46937 whole entry, looked up): as the sequence (P46937 whole entry, looked up) above

Huh-7 [13] = test: Antitumor activity against human Huh-7 cells xenografted in immunodeficient male NSG mouse assessed as tumor growth inhibition at 100 mg/kg, po administered every 3 days for 24 days; type: functional; details: Huh-7, 576 h, time 24 day, read-out: TGI
NCI-H226 [14] = test: Antiproliferative activity against human NCI-H226 cells assessed as cell killing at 12.5 uM incubated for 3 days by CCK-8 assay; type: functional, cell-based; details: time 3.0 day
[15] = biological target: T2, von Hippel-Lindau disease tumor suppressor/Transcriptional coactivator YAP1; test: PROTAC activity at YAP/VHL in human NCI-H226 cells assessed as effect on YAP level at 10 uM incubated for 48 hrs by Western blot analysis; type: cell-based
Target sequence in this assay (P40337 whole entry, looked up): as the sequence (P40337 whole entry, looked up) above
Target sequence in this assay (P46937 whole entry, looked up): as the sequence (P46937 whole entry, looked up) above

[16] = biological target: T2, von Hippel-Lindau disease tumor suppressor/Transcriptional coactivator YAP1; test: PROTAC activity at YAP/VHL in human NCI-H226 cells assessed as induction of YAP degradation incubated for 48 hrs by Western blot analysis; type: cell-based
Target sequence in this assay (P40337 whole entry): as the sequence (P40337 whole entry, looked up) above
Target sequence in this assay (P46937 whole entry): as the sequence (P46937 whole entry, looked up) above

[17] = biological target: T2, von Hippel-Lindau disease tumor suppressor/Transcriptional coactivator YAP1; test: PROTAC activity at YAP/VHL in human NCI-H226 cells assessed as reduction in CTGF expression incubated for 48 hrs by Western blot analysis; type: cell-based; details: dose 2.5-20 µM
Target sequence in this assay (P40337 whole entry, looked up): as the sequence (P40337 whole entry, looked up) above
Target sequence in this assay (P46937 whole entry, looked up): as the sequence (P46937 whole entry, looked up) above

[18] = biological target: T1, Protein cereblon/Transcriptional coactivator YAP1 (Homo sapiens); test: PROTAC activity at YAP/CRBN in human NCI-H226 cells assessed as effect on YAP level at 10 uM incubated for 48 hrs by Western blot analysis; type: cell-based
[19] = biological target: T2, von Hippel-Lindau disease tumor suppressor/Transcriptional coactivator YAP1; test: PROTAC activity at YAP/VHL in human NCI-H226 cells assessed as reduction in YAP level at 10 uM incubated for 48 hrs by Western blot analysis; type: cell-based
Target sequence in this assay (P40337 whole entry, looked up): as the sequence (P40337 whole entry, looked up) above
Target sequence in this assay (P46937 whole entry, looked up): as the sequence (P46937 whole entry, looked up) above

Activity [1]: inactive
Compound: COc1ccc(-c2cc(-c3ccc(OCC(=O)NCCOCCNc4cccc5c4C(=O)N(C4CCC(=O)NC4=O)C5=O)cc3)nc3c2CC(=O)Nc2ccccc2-3)cc1OC (configuration not stated)
Activity (NCI-H226 [2]): inactive

Activity [5]: inactive
Compound: COc1ccc(-c2cc(-c3ccc(OCCCCCC(=O)N[C@H](C(=O)N4C[C@H](O)C[C@H]4C(=O)N[C@@H](C)c4ccc(-c5scnc5C)cc4)C(C)(C)C)cc3)nc3c2CC(=O)Nc2ccccc2-3)cc1OC
Activity (NCI-H226 [2]): inactive

Activity [5]: inactive
Compound: COc1ccc(-c2cc(-c3ccc(OCCCCCCCC(=O)N[C@H](C(=O)N4C[C@H](O)C[C@H]4C(=O)N[C@@H](C)c4ccc(-c5scnc5C)cc4)C(C)(C)C)cc3)nc3c2CC(=O)Nc2ccccc2-3)cc1OC
Activity (NCI-H226 [2]): inactive

Activity [5]: inactive
Compound: COc1ccc(-c2cc(-c3ccc(OCCOCCOCCC(=O)N[C@H](C(=O)N4C[C@H](O)C[C@H]4C(=O)N[C@@H](C)c4ccc(-c5scnc5C)cc4)C(C)(C)C)cc3)nc3c2CC(=O)Nc2ccccc2-3)cc1OC
Activity (NCI-H226 [2]): inactive

Activity [5]: inactive
Compound: COc1ccc(-c2cc(-c3ccc(OCCCCCCCCCC(=O)N[C@H](C(=O)N4C[C@H](O)C[C@H]4C(=O)N[C@@H](C)c4ccc(-c5scnc5C)cc4)C(C)(C)C)cc3)nc3c2CC(=O)Nc2ccccc2-3)cc1OC
Activity (NCI-H226 [2]): inactive

Activity [12]: inactive
Compound: COc1ccc(-c2cc(-c3ccccc3)nc3c2CC(=O)Nc2ccccc2-3)cc1OCCOCC(=O)N[C@H](C(=O)N1C[C@H](O)C[C@H]1C(=O)N[C@@H](C)c1ccc(-c2scnc2C)cc1)C(C)(C)C
Activity (NCI-H226 [7]): Active
Activity (NCI-H226 [4]): inactive

Activity [12]: inactive
Compound: COc1ccc(-c2cc(-c3ccccc3)nc3c2CC(=O)Nc2ccccc2-3)cc1OCCOCCC(=O)N[C@H](C(=O)N1C[C@H](O)C[C@H]1C(=O)N[C@@H](C)c1ccc(-c2scnc2C)cc1)C(C)(C)C
Activity (NCI-H226 [7]): Active
Activity (NCI-H226 [4]): inactive

Activity [15]: inactive
Compound: COc1cc(-c2cc(-c3ccccc3)nc3c2CC(=O)Nc2ccccc2-3)ccc1OCCCCCCCCCC(=O)N[C@H](C(=O)N1C[C@H](O)C[C@H]1C(=O)N[C@@H](C)c1ccc(-c2scnc2C)cc1)C(C)(C)C
Activity (NCI-H226 [14]): inactive

DC50 [16]: 14.9 µM
Activity [17]: Dose-Dependent Effect
Compound: COc1cc(-c2cc(-c3ccccc3)nc3c2CC(=O)Nc2ccccc2-3)ccc1OCCOCC(=O)N[C@H](C(=O)N1C[C@H](O)C[C@H]1C(=O)N[C@@H](C)c1ccc(-c2scnc2C)cc1)C(C)(C)C
Activity (NCI-H226 [4]): inactive

Activity [19]: Active
Compound: COc1cc(-c2cc(-c3ccccc3)nc3c2CC(=O)Nc2ccccc2-3)ccc1OCCOCCOCCOCCC(=O)N[C@H](C(=O)N1C[C@H](O)C[C@H]1C(=O)N[C@@H](C)c1ccc(-c2scnc2C)cc1)C(C)(C)C
Activity (NCI-H226 [4]): inactive

Activity [12]: inactive
Compound: COc1ccc(-c2cc(-c3ccccc3)nc3c2CC(=O)Nc2ccccc2-3)cc1OCCOCCOCCC(=O)N[C@H](C(=O)N1C[C@H](O)C[C@H]1C(=O)N[C@@H](C)c1ccc(-c2scnc2C)cc1)C(C)(C)C
Activity (NCI-H226 [7]): Active
Activity (NCI-H226 [4]): inactive

The next lines start with the molecule.

Compound: COc1cc(-c2cc(-c3ccccc3)nc3c2CC(=O)Nc2ccccc2-3)ccc1O
TEAD transcriptional inhibition (active/inactive call) [3]: Active

Compound: COc1cc(-c2cc(-c3ccccc3)nc3c2CC(=O)Nc2ccccc2-3)ccc1OCC(=O)NCCOCCNc1cccc2c1C(=O)N(C1CCC(=O)NC1=O)C2=O (configuration not stated)
Activity (NCI-H226 [4]): inactive

Compound: COc1ccc(-c2cc(-c3ccccc3)nc3c2CC(=O)Nc2ccccc2-3)cc1O
TEAD transcriptional inhibition (active/inactive call) [3]: Active

Compound: COc1cc(-c2cc(-c3ccccc3)nc3c2CC(=O)Nc2ccccc2-3)ccc1OCC(=O)NCCOCCOCCNc1cccc2c1C(=O)N(C1CCC(=O)NC1=O)C2=O (configuration not stated)
Activity (NCI-H226 [4]): inactive

Compound: COc1ccc(-c2cc(-c3ccccc3)nc3c2CC(=O)Nc2ccccc2-3)cc1OCC(=O)NCCOCCNc1cccc2c1C(=O)N(C1CCC(=O)NC1=O)C2=O (configuration not stated)
Activity [6]: inactive
Activity (NCI-H226 [7]): Active
Activity (NCI-H226 [4]): inactive

Compound: COc1ccc(-c2cc(-c3ccc(OCC(=O)NCCOCCOCCNc4cccc5c4C(=O)N(C4CCC(=O)NC4=O)C5=O)cc3)nc3c2CC(=O)Nc2ccccc2-3)cc1OC (configuration not stated)
Activity [1]: inactive
Activity (NCI-H226 [2]): inactive

Compound: CN[C@@H](C)C(=O)N[C@H](C(=O)N1CCC[C@H]1c1nc(C(=O)c2cccc(OCCOCCNC(=O)[C@]34CC[C@@H](C(C)=O)[C@@H]3[C@H]3CC[C@@H]5[C@@]6(C)CC[C@H](O)C(C)(C)[C@@H]6CC[C@@]5(C)[C@]3(C)CC4)c2)cs1)C1CCCCC1
Activity [8]: < 50%

Compound: COc1ccc(-c2cc(-c3ccccc3)nc3c2CC(=O)Nc2ccccc2-3)cc1OC
IC50 (NCI-H226 [9]): 3.9 µM
IC50 (Huh-7 [10]): 69 µM
inhibition (INH) (NCI-H226 [11]): 95%

Compound: CC(=O)c1ccc(OCc2ccccc2)cc1
TEAD transcriptional inhibition (active/inactive call) [3]: Active

Compound: COc1cc(-c2cc(-c3ccccc3)nc3c2CC(=O)Nc2ccccc2-3)ccc1OCCOC(C)=O
TEAD transcriptional inhibition (active/inactive call) [3]: Active

Compound: CNC(=O)c1cc(Oc2ccc(NC(=O)Nc3ccc(Cl)c(C(F)(F)F)c3)cc2)ccn1 [SORAFENIB]
inhibition in vivo at 100 mg/kg (Huh-7 [13]): 76%

Compound: COc1cc(-c2cc(-c3ccccc3)nc3c2CC(=O)Nc2ccccc2-3)ccc1OCCOCCC(=O)N[C@H](C(=O)N1C[C@H](O)C[C@H]1C(=O)N[C@@H](C)c1ccc(-c2scnc2C)cc1)C(C)(C)C
Activity (NCI-H226 [4]): inactive

Compound: COc1cc(-c2cc(-c3ccccc3)nc3c2CC(=O)Nc2ccccc2-3)ccc1OCC(=O)NCCOCCOCCOCCNc1cccc2c1C(=O)N(C1CCC(=O)NC1=O)C2=O (configuration not stated)
Activity [18]: inactive
Activity (NCI-H226 [14]): inactive

Compound: COc1ccc(-c2cc(-c3ccccc3)nc3c2CC(=O)Nc2ccccc2-3)cc1OCc1ccccc1
TEAD transcriptional inhibition (active/inactive call) [3]: Active

Compound: COc1ccc(-c2cc(-c3ccccc3)nc3c2CC(=O)Nc2ccccc2-3)cc1OCC(=O)NCCOCCOCCOCCNc1cccc2c1C(=O)N(C1CCC(=O)NC1=O)C2=O (configuration not stated)
Activity [6]: inactive
Activity (NCI-H226 [7]): Active
Activity (NCI-H226 [4]): inactive

Compound: COc1ccc(-c2cc(-c3ccccc3)nc3c2CC(=O)Nc2ccccc2-3)cc1OCCOC(C)=O
TEAD transcriptional inhibition (active/inactive call) [3]: Active

Compound: COc1ccc(-c2cc(-c3ccc(OCC(=O)NCCOCCOCCOCCNc4cccc5c4C(=O)N(C4CCC(=O)NC4=O)C5=O)cc3)nc3c2CC(=O)Nc2ccccc2-3)cc1OC (configuration not stated)
Activity [1]: inactive
Activity (NCI-H226 [2]): inactive

Compound: COc1cc(-c2cc(-c3ccccc3)nc3c2CC(=O)Nc2ccccc2-3)ccc1OCCCCCCCC(=O)N[C@H](C(=O)N1C[C@H](O)C[C@H]1C(=O)N[C@@H](C)c1ccc(-c2scnc2C)cc1)C(C)(C)C
Activity (NCI-H226 [4]): inactive

Compound: COc1ccc(-c2cc(-c3ccccc3)nc3c2CC(=O)Nc2ccccc2-3)cc1OCC(=O)NCCOCCOCCNc1cccc2c1C(=O)N(C1CCC(=O)NC1=O)C2=O (configuration not stated)
Activity [6]: inactive
Activity (NCI-H226 [7]): Active
Activity (NCI-H226 [4]): inactive

Compound: COc1cc(-c2cc(-c3ccccc3)nc3c2CC(=O)Nc2ccccc2-3)ccc1OCCCCCC(=O)N[C@H](C(=O)N1C[C@H](O)C[C@H]1C(=O)N[C@@H](C)c1ccc(-c2scnc2C)cc1)C(C)(C)C
Activity (NCI-H226 [4]): inactive

— ChEMBL document CHEMBL5584348, “Exploring Degradation of Intrinsically Disordered Protein Yes-Associated Protein Induced by Proteolysis TArgeting Chimeras” (J Med Chem, 2024)
